Laboratory results from patent US8440666B2, “Pyridazinone compounds and P2X7 receptor inhibitors” (Nissan Chemical Industries, Ltd., priority 2007, dated 2013).

Columns and labels:
[1] = biological target: T1, Human P2X7 (hP2X7) receptor (Homo sapiens, UniProt Q99572); assay: Dye assay: BzATP-induced Yo-Pro-1 uptake in HEK293 cells stably expressing hP2X7; assay type: cell-based; conditions: 90 min incubation
T1 construct: myc-His (from the pcDNA3.1/myc-HisA vector); expressed in transfected cells
T1 sequence (Q99572 1-595): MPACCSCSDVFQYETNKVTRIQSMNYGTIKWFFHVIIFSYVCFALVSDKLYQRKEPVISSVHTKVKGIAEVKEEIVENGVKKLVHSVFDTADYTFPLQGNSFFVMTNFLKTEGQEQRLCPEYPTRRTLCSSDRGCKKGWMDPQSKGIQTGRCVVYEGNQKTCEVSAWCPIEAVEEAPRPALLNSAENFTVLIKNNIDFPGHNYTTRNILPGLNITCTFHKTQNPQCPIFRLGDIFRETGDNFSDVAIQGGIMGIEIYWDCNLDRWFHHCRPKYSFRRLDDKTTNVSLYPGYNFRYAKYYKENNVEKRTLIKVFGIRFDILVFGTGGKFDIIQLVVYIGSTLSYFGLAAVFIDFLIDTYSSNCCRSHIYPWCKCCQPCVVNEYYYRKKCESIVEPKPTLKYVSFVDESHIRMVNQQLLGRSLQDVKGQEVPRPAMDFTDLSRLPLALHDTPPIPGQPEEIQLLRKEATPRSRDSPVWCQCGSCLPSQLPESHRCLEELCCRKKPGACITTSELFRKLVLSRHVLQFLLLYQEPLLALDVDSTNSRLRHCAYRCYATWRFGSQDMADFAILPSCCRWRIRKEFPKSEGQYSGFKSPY
Text: Human P2X7 (hP2×7) was cloned from a normal human brain total RNA library by reverse transcription (using SuperScript II (Invitrogen)) and PCR (using KOD-plus-(TOYOBO)). PCR primers were designed according to hP2X7 sequence registered in GENBANK with a putative amino acid sequence consisting of 595 amino acid residues. The PCR fragments were inserted into pcDNA3.1/myc-HisA vector (Invitrogen) and sequenced for confirmation.
HEK293 cells were transfected with hP2×7/pcDNA3.1/myc-HisA by lipofection, and 1 day later, the cells were treated with 1 mg/mL G418, and resistant cells were selected by appropriately dilution. The resistant cells were cloned by reseeding at a low density.
P2X7 receptor antagonists were screened by a dye uptake assay using HEK293 cells stably expressing hP2×7. Cells were plated on a type I collagen-coated black/clear bottom 96-well plate at 20000 cells/well and a day later, treated with varying concentrations of various test compounds for 30 minutes, then treated with a dye (Yo-Pro-1) (final concentration 2 μM) and BzATP (final concentration 0.1 mM) and incubated for 90 minutes. Then, the fluorescence (indicating the BzATP-induced Yo-Pro-1 uptake mediated by the P2X7 receptor) was measured with a microplate reader (excitation wavelength: 485 nm, emission wavelength: 535 nm). The % inhibition rates were calculated and plotted against the logarithms of the concentrations to determine IC50.

[2] = test system: IL-1β in supernatants of peripheral blood mononuclear cells; assay: IL-1β assay: BzATP- or ATP-induced IL-1β release from LPS-treated human peripheral blood mononuclear cells; assay type: cell-based; conditions: 2 h; IL-1β in supernatants of LPS-treated human PBMC; BzATP (1 mM) or ATP (5 mM), 120 min
Protocol: Human whole blood from healthy volunteers was diluted with equal volume of saline and peripheral blood mononuclear cells were collected by using a Limphoprep tube (Daiichi Pure Chemicals), washed with physiological saline and seeded onto a 96-well plate with a medium containing 1-10 ng/mL LPS (SIGMA). 30 minutes later, the cells were treated with varying concentrations of various compounds and incubated for 30 minutes. Then, the cells were treated with BzATP (final concentration 1 mM) or ATP (final concentration 5 mM) and incubated for 120 minutes. The cells were centrifugated to collect supernatents, and the concentration of IL-1β in supernatants were determined by IL-1β HTRF kit (CIS biointernational). The % inhibition rates were calculated and plotted against the logarithms of the concentrations to determine IC50.

[3] = BzATP (0.1 mM)-induced Yo-Pro-1 uptake, compounds 30 min pre-treatment
[4] = BzATP 0.1 mM, Yo-Pro-1 2 μM, 30 min pre-treatment

| IC50 [1, 3] [nM] | IC50 [2] [nM] | IC50 [1, 4] [nM] | Structure (SMILES) |
| --- | --- | --- | --- |
| 21 | 61 |  | C[C@@H]1[C@H]2C[C@@H](C[C@H]1Nc1cnn(CCNCc3ccncc3)c(=O)c1Br)C2(C)C [Synthetic Example 47, 4-Bromo-2-[2-(pyridin-4-ylmethylamino)ethyl]-5-[(1R,2R,3R,5S)-2,6,6-trimethylbicyclo[3.1.1]hept-3-ylamino]pyridazin-3(2H)-one] |
| 3.5 | 47 |  | C[C@@H]1[C@H]2C[C@@H](C[C@H]1Nc1cnn(CC(=O)NCc3ccncc3)c(=O)c1Br)C2(C)C [compound 9] |
| 6.3 | 19 |  | CC(NC(=O)Cn1ncc(N[C@@H]2C[C@@H]3C[C@H]([C@H]2C)C3(C)C)c(Br)c1=O)c1ccncc1 (some centres unmarked) [compound 39] |
| 4.1 | 82 |  | CCN(CC)c1ccc(C(=O)Cn2ncc(N[C@@H]3C[C@@H]4C[C@H]([C@H]3C)C4(C)C)c(Br)c2=O)cc1 [compound 84] |
| 30 |  |  | C[C@@H]1[C@H]2C[C@@H](C[C@H]1Nc1cnn(CC(=O)N[C@H](CO)c3ccccc3)c(=O)c1Cl)C2(C)C [compound 270] |
| 14 |  |  | C[C@@H]1[C@H]2C[C@@H](C[C@H]1Nc1cnn(CC(=O)N[C@@H](CO)c3ccccc3)c(=O)c1Cl)C2(C)C [compound 271] |
| 190 |  |  | Cc1cncnc1CNC(=O)Cn1ncc(N[C@@H]2C[C@@H]3C[C@H]([C@H]2C)C3(C)C)c(Cl)c1=O [compound 281] |
| 3 |  |  | CCC(NC(=O)Cn1ncc(N[C@@H]2C[C@@H]3C[C@H]([C@H]2C)C3(C)C)c(Cl)c1=O)c1ccnnc1 (some centres unmarked) [compound 288] |
| 68 |  |  | Cc1cc(NC(=O)Cn2ncc(N[C@@H]3C[C@@H]4C[C@H]([C@H]3C)C4(C)C)c(Cl)c2=O)sn1 [compound 292] |
| 3.5 |  |  | C[C@@H]1[C@H]2C[C@@H](C[C@H]1Nc1cnn(CC(=O)NCc3ccnnc3)c(=O)c1Cl)C2(C)C [compound 293] |
| 5.4 |  |  | COc1cnccc1CNC(=O)Cn1ncc(N[C@@H]2C[C@@H]3C[C@H]([C@H]2C)C3(C)C)c(Cl)c1=O [compound 294] |
| 230 |  |  | CCC(NC(=O)Cn1ncc(N[C@@H]2C[C@@H]3C[C@H]([C@H]2C)C3(C)C)cc1=O)c1ccncc1 (some centres unmarked) [compound 295] |
| 230 |  |  | C[C@@H]1[C@H]2C[C@@H](C[C@H]1Nc1cnn(CCS(=O)(=O)c3ccccc3)c(=O)c1Cl)C2(C)C [compound 308] |
| 34 |  |  | CC1(C)[C@@H]2C[C@@H](Nc3cnn(CC(=O)NCc4ccncc4)c(=O)c3Br)[C@@](C)(O)[C@H]1C2 [compound 314] |
| 38 |  |  | O=C(Cn1ncc(NC2CCCCCCC2)c(Br)c1=O)NCc1ccncc1 [compound 321] |
| 160 |  |  | O=C(Cn1ncc(NC2CCCCCCCCC2)c(Br)c1=O)NCc1ccncc1 [compound 326] |
| 19 |  |  | O=C(Cn1ncc(NC2CC3CC4CC(C3)C2C4)c(Br)c1=O)NCc1ccncc1 (centres unmarked) [compound 331] |
| 13 |  |  | CCC(NC(=O)Cn1ncc(NC23CC4CC(CC2C4)C3)c(Br)c1=O)c1ccncc1 (centres unmarked) [compound 335] |
| 8.2 |  |  | CCC(NC(=O)Cn1ncc(NC23CC4CC(CC2C4)C3)c(Cl)c1=O)c1ccncc1 (centres unmarked) [compound 337] |
| 5.3 |  |  | Cc1cnccc1CNC(=O)Cn1ncc(NC23CC4CC(CC2C4)C3)c(Cl)c1=O [compound 338] |
| 25 |  |  | O=C(Cn1ncc(NC23CC4CC(CC2C4)C3)c(Cl)c1=O)NCc1ccnc(F)c1 [compound 343] |
| 34 |  |  | O=C(Cn1ncc(NC23CC4CC(CC2C4)C3)c(Br)c1=O)NCc1ccnnc1 [compound 345] |
| 5 |  |  | C[C@@H](NC(=O)Cn1ncc(NC23CC4CC(CC2C4)C3)c(Cl)c1=O)c1ccncc1 [compound 347] |
| 26 |  |  | CC(NC(=O)Cn1ncc(NC23CC4CC(CC2C4)C3)c(Br)c1=O)c1ccnnc1 (centres unmarked) [compound 348] |
| 45 |  |  | CCC(NC(=O)Cn1ncc(NC23CC4CC(CC2C4)C3)c(Cl)c1=O)c1ccncn1 (centres unmarked) [compound 351] |

| IC50 [1, 3] [nM] | IC50 [2] [nM] | IC50 [1, 4] [nM] | Structure (SMILES) |
| --- | --- | --- | --- |
| 2.6 |  |  | CC(NC(=O)Cn1ncc(NC23CC4CC(CC2C4)C3)c(Cl)c1=O)c1ccncc1Cl (centres unmarked) [compound 354] |
| 27 |  |  | CCC(NC(=O)Cn1ncc(NC2CCCCCCC2)c(Br)c1=O)c1ccncc1 (centres unmarked) [compound 355] |
| 14 |  |  | CCC(NC(=O)Cn1ncc(N[C@@H]2C[C@@H]3C[C@@H](C3(C)C)[C@]2(C)O)c(Cl)c1=O)c1ccncc1 (some centres unmarked) [compound 360] |
| 18 |  |  | Cc1cnccc1CNC(=O)Cn1ncc(N[C@@H]2C[C@@H]3C[C@@H](C3(C)C)[C@]2(C)O)c(Cl)c1=O [compound 361] |
| 3.1 |  |  | CN(C)c1cnccc1CNC(=O)Cn1ncc(N[C@@H]2C[C@@H]3C[C@@H](C3(C)C)[C@]2(C)O)c(Cl)c1=O [compound 362] |
| 2.8 |  |  | CC(NC(=O)Cn1ncc(N[C@@H]2C[C@@H]3C[C@@H](C3(C)C)[C@]2(C)O)c(Cl)c1=O)c1ccncc1Cl (some centres unmarked) [compound 363] |
| 3.4 |  |  | CC(NC(=O)Cn1ncc(N[C@@H]2C[C@@H]3C[C@@H](C3(C)C)[C@]2(C)O)c(Cl)c1=O)c1ccnnc1 (some centres unmarked) [compound 364] |
| 2.7 |  |  | CC(NC(=O)Cn1ncc(N[C@@H]2C[C@@H]3C[C@@H](C3(C)C)[C@]2(C)O)c(Cl)c1=O)c1ccnc(F)c1 (some centres unmarked) [compound 365] |
| 2.6 |  |  | CN(C)c1cnccc1CNC(=O)Cn1ncc(NC23CC4CC(CC(C4)C2)C3)c(Cl)c1=O [compound 366] |
| 3 |  |  | CC(NC(=O)Cn1ncc(NC23CC4CC(CC(C4)C2)C3)c(Cl)c1=O)c1ccnnc1 (centres unmarked) [compound 367] |
| 2.6 |  |  | C[C@@H](NC(=O)Cn1ncc(NC2C3CC4CC(C3)CC2C4)c(Cl)c1=O)c1ccncc1 (some centres unmarked) [compound 368] |
| 2.1 |  |  | C[C@@H](NC(=O)Cn1ncc(NC2C3CCCC2CCC3)c(Cl)c1=O)c1ccncc1 (some centres unmarked) [compound 369] |
| 3.2 |  |  | CC(NC(=O)Cn1ncc(NC2C3CCCC2CCC3)c(Br)c1=O)c1ccnnc1 (centres unmarked) [compound 372] |
| 2.8 |  |  | CN(C)c1cnccc1CNC(=O)Cn1ncc(NC2C3CCCC2CCC3)c(Cl)c1=O (centres unmarked) [compound 373] |
| 6 |  |  | CC(NC(=O)Cn1ncc(NC2C3CCCC2CCC3)c(Cl)c1=O)c1ccncn1 (centres unmarked) [compound 374] |
| 2.7 |  |  | CC(NC(=O)Cn1ncc(NC2C3CCCC2CCC3)c(Cl)c1=O)c1ccnnc1 (centres unmarked) [compound 376] |
| 2.3 |  |  | CC(NC(=O)Cn1ncc(NC2C3CCCC2CCC3)c(Cl)c1=O)c1ccnc(F)c1 (centres unmarked) [compound 377] |
|  |  | 1.7 | COc1nnc(Cl)cc1C(C)NC(=O)Cn1ncc(N[C@@H]2C[C@@H]3C[C@H]([C@H]2C)C3(C)C)c(Cl)c1=O (some centres unmarked) [compound 438] |
|  |  | 2 | CC(NC(=O)Cn1ncc(N[C@@H]2C[C@@H]3C[C@H]([C@H]2C)C3(C)C)c(Cl)c1=O)c1ccnnc1Cl (some centres unmarked) [compound 439] |
|  |  | 1.9 | COc1nnccc1C(C)NC(=O)Cn1ncc(N[C@@H]2C[C@@H]3C[C@H]([C@H]2C)C3(C)C)c(Cl)c1=O (some centres unmarked) [compound 441] |
|  |  | 5.6 | Cc1cc(C(C)NC(=O)Cn2ncc(N[C@@H]3C[C@@H]4C[C@H]([C@H]3C)C4(C)C)c(Cl)c2=O)c(Cl)nn1 (some centres unmarked) [compound 443] |
|  |  | 42 | C[C@@H]1[C@H]2C[C@@H](C[C@H]1Nc1cnn(CC(=O)NCC3CCNC=C3S(C)(=O)=O)c(=O)c1Cl)C2(C)C (some centres unmarked) [compound 447] |
|  |  | 14 | C[C@@H]1[C@H]2C[C@@H](C[C@H]1Nc1cnn(CC(=O)NCc3ccnc(F)c3Cl)c(=O)c1Cl)C2(C)C [compound 448] |
|  |  | 16 | CC(NC(=O)Cn1ncc(NC2CCC[C@@H]3CCCC[C@H]23)c(Cl)c1=O)c1ccncc1 (some centres unmarked) [compound 453] |
